Assay results reported in the supplement of paper PMC10307832.

Key:
Assay in all cases: relative viability (nuclei count vs DMSO), 5 days (fraction); higher = more cells survive
[1] = compound: CN1C=C(C2=CC=CC=C21)/C=C\3/C4=C(C=CC=N4)NC3=O + Nc1ncn([C@H]2C[C@H](O)[C@@H](CO)O2)c(=O)n1 [Decitabine] (partner 2 µM)
Procedure, shortened: (§1)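 The day after seeding in 1536-well plates, lung cancer cell lines were treated by pin tool with a single drug, or with a fixed anchor-drug dose together with five library-drug doses (not always all listed) in √10 steps. After 5 days, a combined fix-and-stain solution (final 0.05% Triton X-100, 1% formaldehyde, 1 ug/ml Hoechst) was added. Nuclei counted on 4× images gave relative viability as treated counts over vehicle counts, reported as the median of duplicate plates.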

[2] = compound: CC(=O)Nc1cccc(-n2c(=O)n(C3CC3)c(=O)c3c(Nc4ccc(I)cc4F)n(C)c(=O)c(C)c32)c1 [Trametinib] + N=C(N)NC(=N)NCCc1ccccc1 [Phenformin] (partner 250 µM)
Procedure, shortened: as §1

[3] = compound: CC(=O)Nc1cccc(-n2c(=O)n(C3CC3)c(=O)c3c(Nc4ccc(I)cc4F)n(C)c(=O)c(C)c32)c1 [Trametinib] + CC(C)C[C@H](NC(=O)[C@H](Cc1ccccc1)NC(=O)c1cnccn1)B(O)O [Bortezomib] (partner 0.002 µM)
Procedure, shortened: as §1

[4] = compound: CN1C=C(C2=CC=CC=C21)/C=C\3/C4=C(C=CC=N4)NC3=O + O=C(c1cc(Cc2n[nH]c(=O)c3ccccc23)ccc1F)N1CCN(C(=O)C2CC2)CC1 [Olaparib] (partner 8 µM)
Procedure, shortened: as §1

UMC-11 showed a relative viability ([1]; first compound 0.02 µM) of 0.604, a relative viability ([1]; first compound 0.06325 µM) of 0.631 and a relative viability ([1]; first compound 0.2 µM) of 0.497. It also gave a relative viability ([1]; first compound 0.6325 µM) of 0.395, a relative viability ([1]; first compound 2 µM) of 0.646 and a relative viability ([2]; first compound 0.0025 µM) of 0.366. The relative viability ([2]; first compound 0.007906 µM) was 0.328, the relative viability ([2]; first compound 0.025 µM) was 0.28 and the relative viability ([2]; first compound 0.07906 µM) was 0.309. For the same cell line, the relative viability ([2]; first compound 0.25 µM) was 0.291, the relative viability ([3]; first compound 0.0025 µM) was 0.777 and the relative viability ([3]; first compound 0.007906 µM) was 0.836. The relative viability ([3]; first compound 0.025 µM) was 0.254, the relative viability ([3]; first compound 0.07906 µM) was 0.837 and the relative viability ([3]; first compound 0.25 µM) was 0.663. The relative viability ([4]; first compound 0.02 µM) was 0.461, the relative viability ([4]; first compound 0.06325 µM) was 0.333 and the relative viability ([4]; first compound 0.2 µM) was 0.356. It also gave a relative viability ([4]; first compound 0.6325 µM) of 0.381 and a relative viability ([4]; first compound 2 µM) of 0.47.
